Read-outs that look alike come from different tables or passages of the source.
Columns and labels:
PCK rat [1] = conditions: for Statistics (a): KW % BW, significance compared to control / Statistics (a): Kidney Weight (KW), significance compared to control / KW % BW / Kidney Weight (KW) / LW % BW / Liver % Fibrocystic / Liver Weight (LW): 24 weeks
Excerpt: PCK rat animal model of slowly-progressing PKD. The PCK rat is an animal model that has a orthologous genetic mutation to the human autosomal recessive polycystic kidney disease (ARPKD), but has the phenotypic characteristics of human ADPKD, including renal and liver fibrocystic disease. The Pck gene of the rat is an orthologue to the PKHD-1 gene responsible for ARPKD. The animal model develops both kidney and liver fibrocystic diseases, and is slow progressing. […] Only females are used in the study.
Briefly, after weaning, test animals are fed a diet containing increasing doses of a PPARγ modulator, normalized to body weight, and compared to untreated control fed normal diet. A hematocrit is measured to assess the presence or absence of fluid retention. […] The untreated control group fed the same diet without any PPARγ modulators.
Animals are sacrificed and total body weight is recorded. Total kidney weight is recorded, total liver weight is recorded, and heart weight is recorded. Blood is collected via cardiac puncture, and serum and plasma samples are collected. The liver and kidney were embedded in paraffin and transversely sectioned and stained with hematoxylin, and eosin. The percent kidney weight to body weight was calculated. After histology on the kidney, renal cyst volume was determined through point count stereology methods. From the total liver weight, the percent liver to body weight was calculated. Following histology and picrosiruis red staining, the percent fibrosis can be determined through point count stereology methods. Heart weight is determined and the percent heart weight to body weight is calculated to assess heart disease, such as due to fluid retention, a reported side effect associated with PPARγ agonist treatment. Hearts are preserved in 4% paraformaldehyde. Liver enzymes, glucose levels, and ion levels are evaluated using the blood and urine samples.

PCK rat [2] = conditions: 14 week study, 20 mg/kg BW; cited from earlier work

SMILES: CN(CCOc1ccc(CC2SC(=O)NC2=O)cc1)c1ccccn1 (centres unmarked) [Rosiglitazone, rosiglitazone]
- Statistics (a): KW % BW, significance compared to control (PCK rat [1]; 0.04 mg/kg BW diet): S
- Statistics (a): Kidney Weight (KW), significance compared to control (PCK rat [1]; 0.04 mg/kg BW diet): S
- KW % BW (PCK rat [1]; 0.04 mg/kg BW diet, n = 8): 0.95 ± 0.15%
- Kidney Weight (KW) (PCK rat [1]; 0.04 mg/kg BW diet, n = 8): 3.68 ± 0.14 g
- LW % BW (PCK rat [1]; 0.04 mg/kg BW diet, n = 8): 7.11 ± 0.27%
- Liver % Fibrocystic (PCK rat [1]; 0.04 mg/kg BW diet, n = 8): 35.36 ± 3.74%
- Liver Weight (LW) (PCK rat [1]; 0.04 mg/kg BW diet, n = 8): 24.23 ± 0.10 g
- KW % BW (PCK rat [1]; 0.4 mg/kg BW diet, n = 8): 1.27 ± 0.08%
- Kidney Weight (KW) (PCK rat [1]; 0.4 mg/kg BW diet, n = 8): 4.27 ± 0.22 g
- LW % BW (PCK rat [1]; 0.4 mg/kg BW diet, n = 8): 6.50 ± 0.57%
- Liver % Fibrocystic (PCK rat [1]; 0.4 mg/kg BW diet, n = 8): 36.81 ± 3.61%
- Liver Weight (LW) (PCK rat [1]; 0.4 mg/kg BW diet, n = 8): 22.05 ± 2.07 g
- Statistics (a): KW % BW, significance compared to control (PCK rat [1]; 4.0 mg/kg BW diet): S
- Statistics (a): Kidney Weight (KW), significance compared to control (PCK rat [1]; 4.0 mg/kg BW diet): S
- KW % BW (PCK rat [1]; 4.0 mg/kg BW diet, n = 3): 0.94 ± 0.06%
- Kidney Weight (KW) (PCK rat [1]; 4.0 mg/kg BW diet, n = 3): 3.56 ± 0.26 g
- LW % BW (PCK rat [1]; 4.0 mg/kg BW diet, n = 3): 5.97 ± 1.38%
- Liver % Fibrocystic (PCK rat [1]; 4.0 mg/kg BW diet, n = 3): 36.17 ± 0.38%
- Liver Weight (LW) (PCK rat [1]; 4.0 mg/kg BW diet, n = 3): 22.66 ± 5.39 g
- serum electrolytes (PCK rat [1]; at any concentration): not altered
- test animals died or had to be sacrificed during treatment due to cholangitis (PCK rat [1]; high dose group): 9/12
- glucose (PCK rat [1]; rat, in vivo): not observed
- hematocrits vs control animals (PCK rat [1]; rat, in vivo): not different from the control animals
- side effects (increased body weight or cholangitis) (PCK rat [1]; rat, in vivo): no detected side effects

SMILES: CCc1ccc(CCOc2ccc(CC3SC(=O)NC3=O)cc2)nc1 (centres unmarked) [pioglitazone]
- kidney function by serum analysis (PCK rat [2]): well-preserved kidney function
- liver enzymes by serum analysis (PCK rat [2]): increased

Reference: patent publication US20200121665A1, “PPAR GAMMA MODULATORS FOR TREATING CYSTIC DISEASES” (Indiana University Research and Technology Corporation, priority 2013, published 2020)
